# Source: paper PMC5447729 (Frontiers in Pharmacology, 2017)
# Read-outs that look alike come from different tables or passages of the source.
# Assays:
# db/db mice = assay: Three-week oral treatment of diabetic db/db mice (FBG, ITT, serum parameters, organ indices); format: in vivo
# Description: All animal experiments were performed according to procedures approved by the Animal Experimentation Ethics Committee of the Beijing Institute of Pharmacology and Toxicology for animal care, handling and termination. Eight-week-old male homozygous C57BLKS/J db/db mice were obtained from the Model Animal Research Centre of Nanjing University (Nanjing, China) and fed a standard mouse diet. Male C57BL/6 mice (4 weeks old) were obtained from the Laboratory Animal Centre of the Beijing Institute of Pharmacology and Toxicology and fed a high-fat, high-sugar diet for 16 weeks to induce diet-induced obesity (DIO). […] Body weight (BW) and fasting blood glucose were recorded regularly during the treatment period. […] Blood glucose was monitored at 0, 30, 60, 90, and 120 min after the oral administration of 1 g kg^−1 dextrose. […]
# (§1) Serum triglyceride (TG), cholesterol, free fatty acid (FFA), and glucose levels were measured by using commercial kits (Nanjing Jiancheng Bioengineering Institute, Nanjing, China) according to the manufacturer's instructions. Serum adiponectin, monocyte chemotactic protein 1(MCP1), Interleukin-6 (IL-6), Receptor activator of nuclear factor kappa-B ligand (RANKL), and Adrenocorticotropic Hormone (ACTH) were quantified using a multiplex Luminex assay (Millipore/Linco Research).
# DIO mice = assay: Three-week oral treatment of insulin-resistant DIO mice (OGTT, FBG, serum factors, organ indices, liver lipids, histology); format: in vivo; conditions: for body weight and WAT: RSG 10 mg kg−1, INT131 30 mg kg−1; for serum adiponectin / serum pro-inflammatory cytokines MCP-1 and IL-6: multiplex detection; for morphology of hepatocyte and hepatic lipid content: vs vehicle-treated
# Description: All animal experiments were performed according to procedures approved by the Animal Experimentation Ethics Committee of the Beijing Institute of Pharmacology and Toxicology for animal care, handling and termination. Eight-week-old male homozygous C57BLKS/J db/db mice were obtained from the Model Animal Research Centre of Nanjing University (Nanjing, China) and fed a standard mouse diet. Male C57BL/6 mice (4 weeks old) were obtained from the Laboratory Animal Centre of the Beijing Institute of Pharmacology and Toxicology and fed a high-fat, high-sugar diet for 16 weeks to induce diet-induced obesity (DIO). […] Compounds were dissolved in DMSO and suspended in 0.5% carboxymethylcellulose. Body weight (BW) and fasting blood glucose were recorded regularly during the treatment period. After 14 d of treatment, db/db mice were subjected to insulin tolerance tests (ITT) and fasted for 6 h prior to the intraperitoneal (i.p.) injection of 1 U kg^−1 insulin, and blood glucose was estimated at the indicated time points. […] Blood glucose was monitored at 0, 30, 60, 90, and 120 min after the oral administration of 1 g kg^−1 dextrose. […] Interscapular brown adipose tissue (iBAT), epididymal white adipose tissue (eWAT), subcutaneous inguinal white adipose tissue (sWAT), liver and skeletal muscle were excised, weighed and rapidly frozen in liquid nitrogen for subsequent gene expression and western blot analysis.
# as §1
# To determine TG and total cholesterol levels in the liver, 50 mg of frozen tissue was homogenized with a TissueLyserII (Qiagen, Germantown, MD, USA) in 1 ml of chloroform/methanol (2:1, v/v), after which 200 μL of 0.05 M KCl was added, and the solution was centrifuged at 5,000 rpm for 10 min. The aqueous phase was removed, and the organic phase was filtered and dried by nitrogen flushing. After evaporation of the chloroform under nitrogen, lipid samples were resuspended in isopropyl alcohol, and TG and total cholesterol content were determined with enzymatic assays.
# sWAT, iBAT, and liver samples were fixed, embedded in paraffin and sectioned. Sections were cut at a thickness of […] and stained with haematoxylin/eosin (HE). Liver sections as well as adipose sections from at least 3 mice per group were also stained with HE. Adipocyte (n = 100 adipocytes) diameter was measured using Image J software, and the average diameter was recorded for each animal.
# PPARγ target genes = assay: Real-time PCR gene expression in tissues of treated DIO and db/db mice; format: in vivo; conditions: for expression of BAT marker genes (Ucp1, Cidea, Elove3, Cox7a, Cox8b) and adipogenesis and lipogenesis genes (aP2, adiponectin, Lpl, Cd36) in BAT: more pronounced in the INT131 group; for expression of adipogenesis and fatty acid metabolism genes in sWAT and eWAT / levels of macrophage markers Cd68 and F4/80, pro-inflammatory cytokines IL-6 and TNFα and chemokine Mcp1 / Ucp1, Elove3 and aP2 gene expression in skeletal muscle: DIO and db/db mice; for expression of adipogenesis and fatty acid metabolism genes in sWAT and eWAT / levels of macrophage markers Cd68 and F4/80, pro-inflammatory cytokines IL-6 and TNFα and chemokine Mcp1: sWAT and eWAT
# Description: Total RNA was isolated from tissues with a High-Purity Total RNA Extraction Kit (BioTeke Corporation, Beijing, China) according to the manufacturer's instructions. RNA was reverse-transcribed into cDNA with a High Capacity cDNA Reverse Transcription Kit (Transgenes Corporation, Beijing, China). Real-time PCR was carried out on an ABI 7300 Real-time PCR System (Applied Biosystems, Foster City, CA, USA) using SYBR Green PCR Master Mix (Roche Molecular Biochemicals, Mannheim, Germany). Relative gene expression levels were normalized to the β-actin gene and quantified by using the 2^−ΔΔCt method. Primer sequences are listed in (Supplementary Table 1).
# PRDM16 = assay: Western blot of PRDM16 protein in sWAT of treated mice; format: in vivo; conditions: DIO and db/db mice
# Excerpt: To obtain tissue lysates, eWAT and sWAT were homogenized in 10% sodium dodecyl sulfate buffer containing protease and phosphatase inhibitors. An antibody targeting PR domain containing 16 (PRDM16) (Abcam) was used for western blotting. Bands were detected with ECL enhanced chemiluminescence detection reagents (Applygen, Beijing, China) and scanned with an Alpha Imager 5500 (Alpha Innotech, San Leandro, CA, USA) imaging densitometer.
# [1] = RSG and INT131 concentrations in plasma and tissue after a single oral dose (UHPLC-MS/MS); format: in vivo, DIO mice; conditions: for Tmax: C57BL/6, mouse, po, 30 mg/kg, read-out: time of peak concentration; for average residency time: blood concentration-time profile, pre-test, single oral gavage RSG 10 mg kg−1 or INT131 30 mg kg−1
# C2C12 cells = assay: Conversion of myogenic C2C12 cells to adipocytes (gene expression); format: cell-based; conditions: 10 μM for 5 d after confluence, in the same manner as RSG
# [2] = test system: mouse 3T3-L1 preadipocytes; assay: Differentiation of mouse 3T3-L1 preadipocytes; format: cell-based; conditions: we and others (Motani et al., 2009)
# [3] = test system: diabetic Zucker (fa/fa) fatty rats; set-up: method as in prior studies in rodents; conditions: 3 mg kg−1 day−1 INT131 vs 1 mg kg−1 RSG, ref prior studies in rodents; cited from earlier work
# [4] = all assayed tissues, DIO mice, RSG 10 mg kg−1 oral
Compound,body weight and WAT (DIO mice),serum adiponectin (DIO mice),serum pro-inflammatory cytokines MCP-1 and IL-6 (DIO mice),sizes of expanded adipocytes in the sWAT (DIO mice; HE staining),morphology of hepatocyte and hepatic lipid content (DIO mice),"expression of BAT marker genes (Ucp1, Cidea, Elove3, Cox7a, Cox8b) and adipogenesis and lipogenesis genes (aP2, adiponectin, Lpl, Cd36) in BAT (PPARγ target genes; DIO mice)",expression of adipogenesis and fatty acid metabolism genes in sWAT and eWAT (PPARγ target genes),"levels of macrophage markers Cd68 and F4/80, pro-inflammatory cytokines IL-6 and TNFα and chemokine Mcp1 (PPARγ target genes)","Ucp1, Elove3 and aP2 gene expression in skeletal muscle (PPARγ target genes)",PRDM16 protein levels in sWAT (PRDM16),average residency time [1],further results
"O=S(=O)(Nc1cc(Cl)c(Oc2cnc3ccccc3c2)c(Cl)c1)c1ccc(Cl)cc1Cl [INT131, 2,4-dichloro-N-[3,5-dichloro-4-(quinolin-3-yloxy)phenyl] benzene sulfonamide]",no impact,equal elevation,decreased levels,markedly decreased,no impact,substantially up-regulation,similarly up-regulated,comparably reduced,enhanced,markedly increased,4.4 ± 1.17 h,"body weight gain compared with RSG (db/db mice; 10 and 30 mg kg−1 INT131 vs 10 mg kg−1 RSG): equal body weight gains; fasting blood glucose (FBG) (db/db mice; INT131 10 or 30 mg kg−1 by gavage once daily, within 1 week of treatment): lowered fasting blood glucose (FBG) in a dose-dependent manner; hepatic weight (DIO mice; 30 mg kg−1 INT131): did not induce an increase; brown adipocyte hypertrophy (adipocyte size and area in BAT) (DIO mice; BAT, HE staining): more severe brown adipocyte hypertrophy; Cd36 expression in the liver (PPARγ target genes; liver, DIO mice): only slightly induced an increase; expression of aP2, adiponectin and cidec in the liver (PPARγ target genes; liver, DIO mice): did not induce; induction of adipsin and cidea in the liver compared with RSG (PPARγ target genes; liver, DIO mice): to a lesser degree; Tmax ([1]; plasma and liver): 0.5 h; Tmax ([1]; skeletal muscle, eWAT, sWAT, BAT): 4 h; switch of myogenic cells to adipocytes (adipogenesis and myogenesis gene expression) (C2C12 cells): able to switch myogenic cells to adipocytes; promoting the differentiation of preadipocytes, compared with RSG [2]: weaker effects; blood glucose lowering effects compared with RSG [3]: identical"
"CN(CCOc1ccc(CC2SC(=O)NC2=O)cc1)c1ccccn1 (stereo not shown) [RSG, 5-[[4-[2-[methyl(pyridin-2-yl)amino]ethoxy]phenyl]methyl]-1,3-thiazolidine-2,4-dione]",no impact,equal elevation,decreased levels,markedly decreased,dramatically aggravated hepatic hypertrophy and increased lipid accumulation,substantially up-regulation,similarly up-regulated,comparably reduced,enhanced,markedly increased,4.03 ± 0.83 h,"expression of adipocyte-specific genes aP2, adipsin, adiponectin, cidea and cidec in the liver (PPARγ target genes; liver, DIO mice): robustly up-regulated; expression of genes of lipogenesis (Acc) and fatty acid uptake (Cd36) in the liver (PPARγ target genes; liver, DIO mice): dramatically stimulated; expression of the key gluconeogenesis gene (Pepck) in the liver (PPARγ target genes; liver, DIO mice): inhibited; expression of fatty acid oxidation genes Cpt1b and Pdk4 in the liver (PPARγ target genes; liver, DIO mice, RSG rather than INT131): marked up-regulation; time of peak concentration (Cmax) [1, 4]: 0.5 h; tissue concentration by 12 h [1, 4]: almost negligible"
